Assay results: patent US20240180160A1, “ANTIVIRAL POLYMER MATERIAL” (VALE BROTHERS LIMITED, priority 2021, published 2024)
Where two headings read alike, the source gives them in different places.

Tests used:
CRFK cells = test: Cytotoxicity control on the titration cells; settings: 0.7% Formaldehyde, neutralised
Method: (§1) In addition, the formaldehyde cytotoxicity of neutralised formaldehyde is determined to measure assay sensitivity.
(§2) TCID50 was determined by the method of Karber (1Kärber, G.: Beitrag zur Kollektiven Behandlung Pharmakologischer Reihenversuche. Arch. Exp. Path. Pharmak. 162 (1931): 480-487.). Test virus suspension has at least a concentration which allows the determination of a 4 log10 reduction of the virus titre. The number of infectious virus particles is quantified by using the Median Tissue Culture Infectious Dose (TCID50) assay. The assay works by adding a serial dilution of the virus sample to cells in a 96 well plate format. The type of cell is specifically selected to show a cytopathic effect (CPE), i.e. morphological changes upon infection with the virus or cell death. After an incubation period, the cells are inspected for CPE or cell death and each well is classified as infected or not infected. Colorimetric or fluorometric readouts are also possible, which can increase assay sensitivity. The dilution, at which 50% of the wells show a CPE, is used to calculate the TCID50 of the virus sample. This calculation can generally be done by a variety of mathematical approaches, e.g., the Spearman-Karber method or the Reed-Muench method. Virus quantity is expressed as TCID50/ml.

[1] = system: Feline coronavirus ATCC VR-989; settings: 0.7% Formaldehyde
Method: as §1, §2

For `C=O` [Formaldehyde, formaldehyde], which “Cytotoxicity TCID50/ml” value (CRFK cells) is on record?
Its value is 3.16E+02 TCID50/ml.

And the “Cytotoxicity log (TCID50/ml)” value (CRFK cells)?
The value was 2.50 log.

What about the “TCID50/ml (recovered virus)” value ([1]; exposure time 30 mins) of the same compound?
The value was 3.16E+02 TCID50/ml.

And the “log (TCID50/ml)” value ([1]; exposure time 30 mins)?
Its value is 2.50 log.

And the log difference ([1]; exposure time 30 mins)?
The log difference was 3.17 log.

And the “TCID50/ml (recovered virus)” value ([1]; exposure time 60 mins)?
Its value is 3.16E+02 TCID50/ml.

And the “log (TCID50/ml)” value ([1]; exposure time 60 mins)?
Its value is 2.50 log.

What about the log difference ([1]; exposure time 60 mins) of the same compound?
Its log difference is 3.17 log.
